Assay results as given in the supplement of paper PMC10307832.

Tests used:
Experiment in all cases: relative viability (nuclei count vs DMSO), 5 days (fraction); higher = more cells survive
[1] = compound: CC[C@H](Nc1ncnc2[nH]cnc12)c1nc2cccc(F)c2c(=O)n1-c1ccccc1 [Idelalisib] + Nc1ncn([C@H]2C[C@H](O)[C@@H](CO)O2)c(=O)n1 [Decitabine] (partner 2 µM)
Summary of the method: (§1)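 Five library-drug doses in √10 steps were combined with a fixed anchor-drug dose, or a single drug was given alone, by pin tool to lung cancer cell lines in 1536-well plates the day after seeding. Nuclei were stained and counted after 5 days. Relative viability is the nuclei count in treated wells over that in vehicle wells, taken as the median of duplicate plates.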

[2] = compound: CC[C@H](Nc1ncnc2[nH]cnc12)c1nc2cccc(F)c2c(=O)n1-c1ccccc1 [Idelalisib] + CC1(C)CCC(c2ccc(Cl)cc2)=C(CN2CCN(c3ccc(C(=O)NS(=O)(=O)c4ccc(N[C@H](CCN5CCOCC5)CSc5ccccc5)c(S(=O)(=O)C(F)(F)F)c4)cc3)CC2)C1 [Navitoclax] (partner 0.5 µM)
Summary of the method: as §1

[3] = compound: Nc1nc2[nH]cc(CCc3ccc(C(=O)N[C@@H](CCC(=O)O)C(=O)O)cc3)c2c(=O)[nH]1 [Pemetrexed] + NC(=O)Nc1cc(-c2cccc(F)c2)sc1C(=O)N[C@H]1CCCNC1 [AZD7762] (partner 0.2 µM)
Summary of the method: as §1

| Cell Line | relative viability ([1]; first compound 0.04 µM) | relative viability ([1]; first compound 0.1265 µM) | relative viability ([1]; first compound 1.265 µM) | relative viability ([1]; first compound 4 µM) | relative viability ([2]; first compound 0.04 µM) | relative viability ([2]; first compound 0.1265 µM) | relative viability ([2]; first compound 1.265 µM) | relative viability ([2]; first compound 4 µM) | relative viability ([3]; first compound 0.002 µM) | relative viability ([3]; first compound 0.006325 µM) | relative viability ([3]; first compound 0.02 µM) | relative viability ([3]; first compound 0.06325 µM) | relative viability ([3]; first compound 0.2 µM) | relative viability ([1]; first compound 0.4 µM) | relative viability ([2]; first compound 0.4 µM) |
| --- | --- | --- | --- | --- | --- | --- | --- | --- | --- | --- | --- | --- | --- | --- | --- |
| NCI-H441 | 0.313 | 0.235 | 0.267 | 0.187 | 0.556 | 0.67 | 0.467 | 0.574 | 1.12 | 1.1 | 1.11 | 1.03 | 0.291 |  |  |
| NCI-H520 | 0.506 | 0.386 | 0.502 | 0.431 | 0.981 | 0.944 | 1.24 | 0.798 |  |  |  |  |  | 0.45 | 0.983 |
| CAL-12T |  |  |  |  | 1.24 | 1.32 | 1.29 | 1.06 | 0.562 | 0.685 | 0.782 | 0.579 | 0.543 |  | 1.14 |
| HCC-827 | 0.379 | 0.246 | 0.331 | 0.286 | 1.06 | 1.05 | 1.03 | 0.964 | 0.192 | 0.276 | 0.26 | 0.183 | 0.164 | 0.347 | 1.03 |
| LC-2-ad | 0.789 | 0.797 | 0.825 | 0.711 | 0.479 | 0.4 | 0.417 | 0.306 | 0.726 | 0.816 | 0.43 | 0.276 | 0.233 | 0.811 | 0.395 |
| NCI-H2170 | 0.507 | 0.471 | 0.438 | 0.417 | 0.665 | 0.613 | 0.598 | 0.509 | 0.873 | 0.916 | 0.864 | 0.774 | 0.357 | 0.505 | 0.524 |
| SW 1573 | 0.462 | 0.6 | 0.261 | 0.38 | 0.859 | 0.837 | 0.926 | 0.791 |  |  |  |  |  | 0.537 | 0.994 |
| SK-MES-1 | 0.399 | 0.414 | 0.248 | 0.257 | 0.995 | 1.41 | 1.08 | 0.867 |  |  |  |  |  | 0.36 | 1.12 |
| NCI-H1648 | 0.512 | 0.58 | 0.507 | 0.429 |  |  |  |  | 0.671 | 0.703 | 0.831 | 0.686 | 0.623 | 0.536 |  |
| NCI-H1793 | 0.404 | 0.398 | 0.454 | 0.38 | 0.379 | 0.462 | 0.346 | 0.22 | 0.468 | 0.404 | 0.966 | 0.446 | 0.509 |  | 0.259 |
| NCI-H1299 |  |  |  |  | 1.04 | 1.01 | 1.12 | 1.08 |  |  |  |  |  |  | 1.07 |
| LCLC-97TM1 | 0.254 | 0.223 | 0.262 | 0.226 | 0.468 | 0.453 | 0.335 | 0.337 | 0.338 | 0.164 | 0.273 | 0.243 | 0.127 | 0.269 |  |
| NCI-H1915 | 0.256 | 0.249 | 0.253 | 0.256 | 0.797 | 0.772 | 0.78 | 0.764 | 0.6 | 0.638 | 0.751 | 0.599 | 0.652 | 0.269 | 0.812 |
| NCI-H661 | 0.616 | 0.583 | 0.6 | 0.542 |  |  |  |  |  |  |  |  |  | 0.543 |  |
| NCI-H2405 | 0.751 | 0.752 | 0.838 | 0.691 | 1.01 | 0.759 | 0.766 | 0.622 | 0.781 | 0.833 | 0.843 | 0.689 | 0.629 | 0.644 | 0.716 |
| NCI-H2347 | 0.612 | 0.589 | 0.621 | 0.512 | 0.89 | 0.667 | 0.767 | 0.618 | 0.61 | 0.831 | 0.914 | 0.517 | 0.428 | 0.752 | 0.737 |
| NCI-H1651 | 0.717 | 0.374 | 0.578 | 0.651 | 0.73 | 1.09 | 1.07 | 0.792 | 0.412 | 0.452 | 0.51 | 0.44 | 0.455 | 0.611 | 1.01 |
| H3255 | 0.902 | 0.623 | 0.721 | 0.512 | 0.617 | 0.513 | 0.415 | 0.38 | 0.798 | 0.916 | 0.928 | 0.79 | 0.571 | 0.538 | 0.506 |
| Calu-6 |  |  |  |  | 0.987 | 0.938 | 0.822 | 0.776 |  |  |  |  |  |  | 0.755 |
| SW 900 | 0.387 | 0.415 | 0.498 | 0.377 |  |  |  |  | 0.692 | 0.599 | 0.609 | 0.497 | 0.376 | 0.505 |  |
| NCI-H650 | 0.345 | 0.324 | 0.348 | 0.28 |  |  |  |  | 0.966 | 0.939 |  | 0.83 | 0.931 | 0.344 |  |
| NCI-H460 | 0.382 | 0.562 | 0.466 | 0.503 | 1.12 | 1.07 | 1.24 | 1.14 | 0.589 | 0.707 | 0.657 | 0.194 | 0.0726 | 0.448 | 1.09 |
| NCI-H2228 |  |  |  |  | 1.04 | 0.569 | 1.03 | 0.666 |  |  |  |  |  |  | 0.742 |
| NCI-H2085 | 0.528 | 0.57 | 0.596 | 0.61 | 1.23 | 1.16 | 0.938 | 0.764 | 0.921 | 0.936 | 1.04 | 0.959 | 0.916 | 0.622 | 0.951 |
| HCC-366 | 0.348 | 0.395 | 0.372 | 0.299 | 1.11 | 1.11 | 1.01 | 0.97 | 0.228 | 0.239 | 0.308 | 0.254 | 0.158 | 0.309 | 1.01 |
| EPLC-272H | 0.35 | 0.354 | 0.435 | 0.333 | 1.08 | 1.14 | 1 | 0.959 | 0.117 | 0.206 | 0.259 | 0.176 | 0.169 | 0.366 | 1 |
